According to ChEMBL document CHEMBL1124338, “Amine peroxides as potential antimalarials” (J Med Chem, 1989):
pIC50: −log10 of the molar value.

Key:
[1] = tested on: Mus musculus; experiment: Compound was evaluated for (T-C) survival time of the treated mice (Mus musculus) against Plasmodium berghei at 640 mg/kg; assay type: functional
[2] = tested on: Plasmodium falciparum; experiment: In vitro antimalarial activity against Plasmodium falciparum W-2; assay type: functional, organism-based
[3] = tested on: Plasmodium falciparum; experiment: In vitro antimalarial activity against Plasmodium falciparum D6; assay type: functional, organism-based
[4] = tested on: Mus musculus; experiment: Compound was evaluated for (T-C) survival time of the treated mice (Mus musculus) against Plasmodium berghei at 160 mg/kg; assay type: functional
[5] = tested on: Mus musculus; experiment: Compound was evaluated for (T-C) survival time of the treated mice (Mus musculus) against Plasmodium berghei at 40 mg/Kg; assay type: functional

SMILES | T-C [1] [days] | pIC50 [2] | pIC50 [3] | T-C [4] [days] | T-C [5] [days]
CC(C)(C)OOCN1CCN(c2ccccc2)CC1 | 0.7 | 4.40 | 4.59 | 0.7 | 0.9
CC1CCN(COOC(C)(C)C)CC1 | 0.7 | 4.60 | 4.71 | 0.1 | 0.3
CC(C)(C)OOCN1CCC(c2ccccc2)CC1 | 0.8 | 4.57 | 4.56 | 0.5 | 0.3
CN(COOC(C)(C)C)C1CCCCC1 | 0.7 | 4.58 | 4.60 | 1.3 | 0.5
CCN(COOC(C)(C)C)c1ccccc1 | 1.3 | 4.40 | 4.27 | 0.3 | 0.5
CC(C)(C)OO [TERT-BUTYL HYDROPEROXIDE] | 0.7 | 3.62 | 3.69 | 0.3 | 0.1
